Results on one molecule are retold here after patent US20240197596A1, “COMPOUNDS USEFUL AS HAIR DYES” (National University of Singapore, priority 2021, published 2024).

As a reminder, the pIC50 is −log10 of the IC50, conventionally taken in molar units. Usually solubility stands for how much of the substance goes into solution per volume. A higher solubility goes with much dissolved substance.

pIC50: −log10 of the molar value. ≈ marks a conversion by molar mass, not a printed value.

One data set concerns HaCaT cells. Particulars: data from J Hazard Mat., 2021, 402, 123712; cited from earlier work.
Data set [1] deals with THP-1 cells. Description: h-CLAT assay on THP-1 cells: markers against OECD cut-off, prediction, cell viability. Format: cell-based, human. Particulars: 8 doses based on CV75, 24 h. On the procedure:
(§1) The assay was conducted as per the literature (Toxicol In Vitro, 2006, 20, 767-73). THP-1 cells were cultured in 24-well plates (1×10^6 cells/1 mL/well) with various concentrations of each chemical (N1-N13), +ve control (DNCB), −ve control for 24 h.
(§2) THP-1 cells were cultured in 24-well plates (1×10^6 cells/mL/well) and treated with recommended concentrations of each chemical (N1-N13), positive control (DNCB) or negative control (SLS) for 24 h. THP-1 cells were cultured and treated with 8 doses of N1-N13 based on the CV75 namely, 1.2×CV75, 1×CV75, 1/1.2×CV75, 1/1.2^2×CV75, 1/1.23×CV75, 1/1.24×CV75, 1/1.2^5×CV75 and 1/1.2^6×CV75. After 24 h, cells were transferred to 1.5 mL of microtubes and centrifuged at 450 g, 5 min, 4° C. Supernatant was discarded and cells were washed with 1 mL of FACS buffer (PBS+FBS+HEPES). The cells were centrifuged at 450 g, 5 min, 4° C. 50 μL of Fc block (0.01% of Globlins Cohn fraction II, III) was added and incubated for 10 min at 4° C. The cells were stained with 20 μL APC CD54 (Mouse IgG1, K, BD Biosciences, San Diego, CA, USA), 20 μL FITC CD86 (Mouse IgG1, K, BD Biosciences, San Diego, CA, USA) or their respective isotype controls and incubated for 15 min at room temperature in dark. After incubation, the antibodies were diluted with 200 μl FACS buffer. The cells were washed with 1 mL FACS buffer twice. Further, 200 μL Propidium iodide (PI, 0.625 μg/mL) prepared in FACS buffer was added before the flow cytometry analysis. Flow cytometric analysis was performed with BD LSR Fortessa™ (Becton Dickinson, San Jose, CA, USA) In total, 10,000 living cells were analysed, and data were processed using Flowjo software (v10.6, Ashland, OR, USA). The test concentration providing a cell viability of 75% (CV75) was derived from the dose response curve and was calculated by log-linear interpolation.
(§3) Geometric mean fluorescence intensity (MFI) was measured for CD54^+ and CD86^+ cells separately and percentage relative fluorescence intensity (% RFI), reflective of CD86 and CD54 relative expression was calculated as described below. RFI was not calculated if cell viability fell below 50%.
(§4) All chemicals were tested in three independent experiments. If in two of three independent experiments at any dose exceeded 150% RFI for CD86, or 200% RFI for CD54, the chemicals could be identified as a sensitizer. Otherwise it is identified as a non-sensitizer.

For data set [2] the following is noted: data from J Hazard Mat., 2021, 402, 123712, cited from earlier work.
In data set [3] the test system is THP-1 cells. Put plainly: MTT assay on THP-1 cells (CV75). Format: cell-based, human. Particulars: THP-1 cells, 24 h. Here is the method: THP-1 (human acute monocytic leukaemia cell line) cell suspension was adjusted to 1×10^5 cells per well and seeded in 96-well plates. The plate was incubated at 37° C. with 5% CO2. After 24 h, 10 mM stock solutions of N1-N13 were prepared in autoclaved milli-Q water. A series of concentrations diluted in media was prepared and added to the wells. Each concentration was performed in 6-replicates, and seeded wells with only media and no compound were used as controls while wells with only media were used as blanks. The plate was incubated for 24 h, after which 100 μL of MTT reagent was added and the plate was further incubated for 3 h before adding 100 μL of DMSO. Subsequently, the plate was shaken for 20 min, and then absorbance at 570 nm was determined using a Bio-Tek plate reader. Percentage cell viability was calculated and CV75 values were determined.

The test system of the next data set is CD54. Put plainly: h-CLAT assay, CD54 expression by flow cytometry. Format: cell-based, human. Particulars: THP-1 cells, 24 h. Here is the method:
as §1, §2, §3, §4
(A flow cytometer gives signals particle by particle.)

A further data set deals with IL-1α. The settings on record: data from J Hazard Mat., 2021, 402, 123712 (FIG. 6); cited from earlier work.
The next data set has as its system IL-8. Particulars: data from J Hazard Mat., 2021, 402, 123712 (FIG. 6); cited from earlier work.
For a further data set, the system named is CD86. Description: h-CLAT assay, CD86 expression by flow cytometry. Format: cell-based, human. The settings on record: THP-1 cells, 24 h. On the procedure:
as §1, §2, §3, §4

The conditions of data set [4]: in vivo; cited from earlier work.
Data set [5] in a line: Thermodynamic solubility assay (modified shake flask, LC-MS/MS). The settings on record: Milli-Q water, 25 °C, pH 7, water, thermodynamic from solid, Water Solubility, library of old series (Table 4). Here is the method:
The aqueous solubilities (pH=7) of these compounds were measured using the modified shake flask method and LC-MS/MS. Each hair dye was added into a 2 mL glass vial containing Milli-Q water (1 mL) to form the precipitates at 25° C. Then the mixture was subjected to a solubility-equilibrium stage. The vials were shaken at 300 rpm at 25° C. for 24 h. The precipitate was separated by centrifugation at 23,000 g for 20 min. Subsequently, 0.5 mL of supernatant was transferred into a 1 mL Eppendorf tube, and it was centrifuged again as mentioned above. The supernatant was then used for LC-MS/MS analysis.
The mass spectrometric analysis was performed by use of a AB SCIEX QTRAP 5500 tandem mass spectrometry (MS/MS) system (AB SCIEX, Framingham, MA, USA) operating in triple quadrupole positive mode (ESI+) equipped with an AB Sciex Turbo Ion Spray interface. Acquisition and analysis of data were performed with Analyst software ver. 1.4.2 (Applied Biosystems) which performed all chromatographic peak integration. For each hair dye, a standard curve consisting of four concentrations was established.
Solvent A was composed of 0.1% [v/v] formic acid in Milli-Q water while solvent B was composed of 0.1% [v/v] formic acid in acetonitrile. A mobile phase gradient pumped at 0.6 mL/min was used to elute the hair dyes from the column. The column was equilibrated for 1 min resulting in a total run time of 5 min. The injection volume was 5.0 μL for all derivatives. To prevent compound accumulation on the needle, 50% methanol in ACN was used as needle wash for 30 s per sample.

As for `COCc1cc(N)ccc1N` [ME-PPD, 2-(methoxymethyl)benzene-1,4-diamine], in the data set with HaCaT cells, the pIC50 was 3.48. Also, the “CD54 and CD86 marker expression against OECD cut-off” value in the data set with THP-1 cells [1] is recorded as “above the recommended threshold”. In addition, in data set [2] (8 h), the “Cumulative amount at 8th hour” value is 0.519 μg/cm^2 and the “Cumulative amount comparison of PPD vs derivatives” value is recorded as 10.4. Further, in data set [2], the “Permeated through skin into receptor” value is recorded as 0.0044 % of applied compound dose, the “Recovered in donor compartment” value is given as 89 % of applied compound dose, the Recovered in skin was 3.6 % of applied compound dose and the “Recovered in skin outside diffusion area” value is recorded as 0.0042 % of applied compound dose. In data set [2], the “Recovered in skin swabs” value is 0.69 % of applied compound dose; the “Recovered on parafilm and in washes” value is listed as 1.84 % of applied compound dose; the “Total recovery (mean percentage parent compound recovery)” value was 95 ± 0.79%. Further, in the data set with THP-1 cells [3], the “CV75 (concentration affording 75% cell viability), 1 × CV75” value came to 144.6 µg/mL. Besides, in the data set on CD54, the “EC200 for CD54 (lowest concentration inducing % RFI of 200)” value turned out to be 120.5 µg/mL. Also, the “release of IL-1α” value with IL-1α is “higher concentrations”. The “release of IL-8” value in the data set with IL-8 was “higher concentrations”. In addition, the “EC150 for CD86 (lowest concentration inducing % RFI of 150)” value in the data set on CD86 turned out to be 117.9 µg/mL. The “PPD-allergic individuals who develop an allergic reaction” value in [4] is “approximately 30%”. In data set [5], the concentration in solution (solubility at 24 h) came to 78 mg/mL (≈ 512 mM).
